Key:
CYP1A1 gene expression [1] = assay: CYP1A1 gene expression after induction with indoor particles, qRT-PCR in keratinocytes; format: cell-based, human; details: for Induction mean ± SE (CYP1A1): 10 μM, Huber990 1.5 μg/cm2, untreated = 1
Procedure: (§1) Gene expression was analyzed via qRT-PCR.

POMC gene expression = assay: Particle induced POMC gene expression, qRT-PCR in keratinocytes; format: cell-based, human; details: SRM1650b, control = 1
Procedure: as §1
(§2) Ginger root CO2 extract has been dissolved in DMSO and diluted in medium. […] Gene expression was analyzed via qRT-PCR. […] Table 7 compiles the results for ginger root CO2 extract altered POMC and IL-6 gene expression
(§3) Purple coneflower pressed juice has been dissolved directly in medium. […] Gene expression was analyzed via qRT-PCR. […] Table 8 compiles the results for purple coneflower pressed juice altered POMC and IL-6 gene expression
(§4) A mixture of purple coneflower pressed juice and ginger root CO2 extract has been pre-dissolved in DMSO and diluted in medium. […] Gene expression was analyzed via qRT-PCR. […] Table 9 compiles the results for purple coneflower pressed juice altered POMC and IL-6 gene expression

IL-6 gene expression = assay: Particle induced IL-6 gene expression, qRT-PCR in keratinocytes; format: cell-based, human; details: SRM1650b, control = 1
Procedure: as §1, §2, §3, §4

MMP1 gene expression = assay: Particle induced MMP1 gene expression, qRT-PCR in keratinocytes; format: cell-based, human; details: SRM1650b, control = 1
Procedure: as §1

CYP1A1 gene expression [2] = assay: CYP1A1 gene expression after induction with outdoor particles, qRT-PCR in keratinocytes; details: for CYP1A1 Induction mean ± SE: NHEK adult, 10 μM, untreated = 1
Procedure: Adult human epidermal keratinocytes were cultured in keratinocyte medium without BPE and without EGF for 24 h prior to addition of model particles (see table 1.1). The model particles were suspended in phosphate buffered saline and were sonicated for 1 min and then directly added to the keratinocytes at 1.5 μg/cm^2. E/Z-2-benzylindene-5,6-dimethoxy-3,3-dimethylindan-1-one (BDDI) has been dissolved in DMSO and diluted in medium. Solutions containing the compound with maximal 0.1% DMSO were applied 2 h prior to treatment with the model particles. Gene expression was analyzed via qRT-PCR. For each gene, a specific PCR primer pair was designed as compiled in Table 2:
Adult human epidermal keratinocytes were cultured in keratinocyte medium without BPE and without EGF for 24 h prior to addition of model particles (see table 1.1). The model particles were suspended in phosphate buffered saline and were sonicated for 1 min and then directly added to the keratinocytes at 1.5 μg/cm^2. Sclareolide has been dissolved in DMSO and diluted in medium. Solutions containing the compound with maximal 0.1% DMSO were applied 2 h prior to treatment with the model particles. Gene expression was analyzed via qRT-PCR. For each gene, a specific PCR primer pair was designed (see Table 2).

E/Z-2-benzylindene-5,6-dimethoxy-3,3-dimethylindan-1-one [BDDI]
Induction mean ± SE (CYP1A1) (CYP1A1 gene expression [1]; 6 h): 0.05 ± 0.00 | Induction mean ± SE (CYP1A1) (CYP1A1 gene expression [1]; 24 h): 0.20 ± 0.00 | inhibition of particle induced Cyp1A1 gene expression (in words) (CYP1A1 gene expression [1]; indoor model particles): capable to inhibit | POMC 6 h (POMC gene expression; 1 μM): 0.9 ± 0.018 | POMC 6 h (POMC gene expression; 2.5 μM): 1.1 ± 0.02 | POMC 6 h (POMC gene expression; 10 μM): 0.9 ± 0.001 | IL-6 6 h (IL-6 gene expression; 1 μM): 0.9 ± 0.067 | IL-6 6 h (IL-6 gene expression; 2.5 μM): 0.6 ± 0.006 | IL-6 6 h (IL-6 gene expression; 10 μM): 0.5 ± 0.01 | MMP1 24 h (MMP1 gene expression; 1 μM): 0.7 ± 0.014 | MMP1 24 h (MMP1 gene expression; 2.5 μM): 0.8 ± 0.016 | MMP1 24 h (MMP1 gene expression; 10 μM): 0.5 ± 0.022 | CYP1A1 Induction mean ± SE (CYP1A1 gene expression [2]; 6 h, SRM1650 1.5 μg/cm2): 0.02 ± 0.00 | CYP1A1 Induction mean ± SE (CYP1A1 gene expression [2]; 6 h, SRM2975 1.5 μg/cm2, particle control 1.03): 0.20 ± 0.00 | CYP1A1 Induction mean ± SE (CYP1A1 gene expression [2]; 24 h, SRM2975 1.5 μg/cm2): 0.01 ± 0.00 | inhibition of particle induced Cyp1A1 gene expression (in words) (CYP1A1 gene expression [2]; outdoor model particles): capable to inhibit

Source: US10857089B2, “Cosmetic compositions comprising purple coneflower pressed juice” (Symrise AG, priority 2015, dated 2020)
